Experimental data as given in ChEMBL document CHEMBL5725412, “Substituted pyrazolo[1,5-a]pyrazines as negative allosteric modulators of metabotropic glutamate receptor 3” (2017).

Experiment: mGlu5 Ca2+ Flux Assay: HEK 293A cells stably expressing rat mGlu5 were plated in black-walled, clear-bottomed, poly-D-lysine coated 384-well plates in 20 μL of assay medium (DMEM containing 10% dialyzed FBS, 20 mM HEPES, 100 units/mL penicillin/streptomycin plus 250 ng/mL Fungizone, and 1 mM sodium pyruvate) at a density of 20K cells/well. The cells were grown overnight at 37° C. in the presence of 5% CO2. The next day, medium was removed and the cells incubated with 20 μL of 2.3 μM Fluo-4, AM prepared as a 2.3 mM stock in DMSO and mixed in a 1:1 ratio with 10% (w/v) pluronic acid F-127 and diluted in assay buffer (Hank's balanced salt solution, 20 mM HEPES, and 2.5 mM probenecid) for 45 minutes at 37° C. Dye was removed, 20 μL of assay buffer was added, and the plate was incubated for 5 minutes at room temperature.
Settings: not given

First: O=C1c2cc(CNc3ccc(OC(F)F)cc3)nn2CCN1c1ccc(F)cc1
Second: Cc1cccc(NCc2cc3n(n2)[C@H](C)CN(c2ccc(F)cc2)C3=O)c1
The IC50 of the first is 3.6-fold lower: 334 nM for the first, 1210 nM for the second. The first is the more potent here.

Same assay, conditions: HEK293-A

First: COc1ccc(N(C)Cc2cc3n(n2)CCN(c2ccc(OC)cc2)C3=O)cc1
Second: COc1ccc(N(C)Cc2cc3n(n2)CCN(c2c(F)cccc2F)C3=O)cc1
The IC50 of the first is 2.8-fold higher: 2880 nM for the first, 1020 nM for the second. The second is the more potent here.

`COc1ccc(NCc2cc3n(n2)CCN(c2ccc(F)c(F)c2)C3=O)cc1` and `Cc1cccc(NCc2cc3n(n2)[C@@H](C)CN(c2ccc(F)cc2)C3=O)c1` are within 1.5-fold of each other in IC50: 1470 nM for the first, 1840 nM for the second.
